Test results published in patent publication US4971963A, “Cephem compounds, and use” (Takeda Chemical Industries, Ltd., priority 1988, dated 1990).
Converted amounts (≈) assume the structure as drawn. Read-outs that look alike come from different tables or passages of the source.

How the values were obtained:
Test in all cases: Minimal inhibitory concentration, agar dilution method
Format in all cases: cell-based
E. coli T 7 = conditions: Escherichia coli, T7, Trypticase soy agar, about 10^8 CFU/ml, 37° C., 18 hours
Description: (§1) The Minimal Inhibitory Concentrations of the tested compounds were determined according to the agar dilution method. Namely, 1.0 ml each of aqueous solution of the test compounds diluted by serial dilutions was poured into test petri dishes, subsequently 9.0 ml each of Trypticase soy agar was poured into the dishes and mixed.
(§2) On each of the mixed agar plates, one loopful of bacterial suspension (about 10^8 CFU/ml) of test microorganism was streaked.
(§3) After the incubation at 37° C. for 18 hours, the lowest concentration of the tested compounds in the medium which caused apparently complete inhibition of growth of the test microorganism was taken to be minimal inhibitory concentration.

K. pneumoniae DT = conditions: Klebsiella pneumoniae, Trypticase soy agar, about 10^8 CFU/ml, 37° C., 18 hours
Description: as §1, §2, §3

S. aureus 1840 = tested on: S. aureus 1840
Description: as §1, §2, §3

S. marcescens IFO12648 = conditions: Serratia marcescens, Trypticase soy agar, about 10^8 CFU/ml, 37° C., 18 hours
Description: as §1, §2, §3

S. aureus N-241 = conditions: Staphylococcus aureus, N241, Trypticase soy agar, about 10^8 CFU/ml, 37° C., 18 hours
Description: as §1, §2, §3

M. morganii IFO3168 = conditions: Morganella morganii, Trypticase soy agar, about 10^8 CFU/ml, 37° C., 18 hours
Description: as §1, §2, §3

E. coli O-111 = conditions: Escherichia coli, O111, Trypticase soy agar, about 10^8 CFU/ml, 37° C., 18 hours
Description: as §1, §2, §3

P. mirabilis IFO3849 = conditions: Proteus mirabilis, Trypticase soy agar, about 10^8 CFU/ml, 37° C., 18 hours
Description: as §1, §2, §3

P. aeruginosa IFO3455 = conditions: Pseudomonas aeruginosa, Trypticase soy agar, about 10^8 CFU/ml, 37° C., 18 hours
Description: as §1, §2, §3

E. cloacae IFO12937 = conditions: Enterobacter cloacae, Trypticase soy agar, about 10^8 CFU/ml, 37° C., 18 hours
Description: as §1, §2, §3

S. aureus J-108 = conditions: Staphylococcus aureus, J108, Trypticase soy agar, about 10^8 CFU/ml, 37° C., 18 hours
Description: as §1, §2, §3

E. coli NIHJ JC-2 = conditions: Escherichia coli, NIHJJC2, Trypticase soy agar, about 10^8 CFU/ml, 37° C., 18 hours
Description: as §1, §2, §3

S. aureus FDA 209P = conditions: Staphylococcus aureus, FDA209P
Description: as §1, §2, §3

S. aureus 308 A-1 = conditions: Staphylococcus aureus, 308A1, Trypticase soy agar, about 10^8 CFU/ml, 37° C., 18 hours
Description: as §1, §2, §3

C. freundii IFO12681 = conditions: Citrobacter freundii, Trypticase soy agar, about 10^8 CFU/ml, 37° C., 18 hours
Description: as §1, §2, §3

P. vulgaris IFO3988 = conditions: Proteus vulgaris, Trypticase soy agar, about 10^8 CFU/ml, 37° C., 18 hours
Description: as §1, §2, §3

[1] = Staphylococcus aureus, S. aureus 1840, Trypticase soy agar, about 10^8 CFU/ml, 37° C., 18 hours, read-out: MIC
[2] = S. aureus FDA 209P, Trypticase soy agar, about 10^8 CFU/ml, 37° C., 18 hours, read-out: MIC

`N#Cc1c(SCC(=N)N)nsc1SCC1=C(C(=O)O)N2C(=O)[C@@H](NC(=O)/C(=N\O)c3csc(N)n3)[C@H]2SC1` [Example 42, 3-[(3-Amidinomethylthio-4-cyanoisothiazol-5-yl)thiomethyl]-7β-[2-(2-aminothiazol-4-yl)-(Z)-2-hydroxyiminoacetamido]-3-cephem-4-carboxylic acid] showed an MIC (E. coli T 7) of 1.56 µg/mL (≈ 2.55 µM), an MIC (K. pneumoniae DT) of 0.78 µg/mL (≈ 1.28 µM) and an MIC (S. aureus 1840; [1]) of 0.2 µg/mL (≈ 0.327 µM). For the same molecule, the MIC (S. marcescens IFO12648) was 1.56 µg/mL (≈ 2.55 µM), the MIC (S. aureus N-241) was 0.78 µg/mL (≈ 1.28 µM) and the MIC (M. morganii IFO3168) was 0.78 µg/mL (≈ 1.28 µM). For the same molecule, the MIC (E. coli O-111) was no more than 0.1 µg/mL, the MIC (P. mirabilis IFO3849) was 3.13 µg/mL (≈ 5.12 µM) and the MIC (P. aeruginosa IFO3455) was 12.5 µg/mL (≈ 20.4 µM). For the same molecule, the MIC (E. cloacae IFO12937) was 3.13 µg/mL (≈ 5.12 µM), the MIC (S. aureus J-108) was 0.78 µg/mL (≈ 1.28 µM) and the MIC (E. coli NIHJ JC-2) was 0.78 µg/mL (≈ 1.28 µM). The MIC (S. aureus FDA 209P; [2]) was no more than 0.1 µg/mL, the MIC (S. aureus 308 A-1) was no more than 0.1 µg/mL and the MIC (C. freundii IFO12681) was 0.78 µg/mL (≈ 1.28 µM). The MIC (P. vulgaris IFO3988) was 0.78 µg/mL (≈ 1.28 µM).

With `CO/N=C(\C(=O)N[C@@H]1C(=O)N2C(C(=O)O)=C(CSc3nnnn3CCCNC(=N)N)CS[C@H]12)c1csc(N)n1` [Example 8, 7β-[2-(2-Aminothiazol-4-yl)-(Z)-2-methoxyiminoacetamido]-3-[[1-(3-guanidinopropyl)-1H-tetrazol-5-yl]thiomethyl]-3-cephem-4-carboxylic acid] the MIC (E. coli T 7) was 0.39 µg/mL (≈ 0.654 µM), the MIC (K. pneumoniae DT) was no more than 0.1 µg/mL and the MIC (S. aureus 1840; [1]) was 0.78 µg/mL (≈ 1.31 µM). The MIC (S. marcescens IFO12648) was no more than 0.1 µg/mL, the MIC (S. aureus N-241) was 12.5 µg/mL (≈ 20.9 µM) and the MIC (M. morganii IFO3168) was no more than 0.1 µg/mL. It also gave an MIC (E. coli O-111) of no more than 0.1 µg/mL, an MIC (P. mirabilis IFO3849) of 0.39 µg/mL (≈ 0.654 µM) and an MIC (P. aeruginosa IFO3455) of 6.25 µg/mL (≈ 10.5 µM). The MIC (E. cloacae IFO12937) was 0.39 µg/mL (≈ 0.654 µM), the MIC (S. aureus J-108) was 6.25 µg/mL (≈ 10.5 µM) and the MIC (E. coli NIHJ JC-2) was no more than 0.1 µg/mL. It also gave an MIC (S. aureus FDA 209P; 18 h) of 0.78 µg/mL (≈ 1.31 µM), an MIC (S. aureus 308 A-1) of 0.78 µg/mL (≈ 1.31 µM) and an MIC (C. freundii IFO12681) of no more than 0.1 µg/mL. For the same molecule, the MIC (P. vulgaris IFO3988) was no more than 0.1 µg/mL.

Work on `N=C(N)CSCCn1nnnc1SCC1=C(C(=O)O)N2C(=O)[C@@H](NC(=O)/C(=N\O)c3csc(N)n3)[C@H]2SC1` [Example 44] yielded an MIC (E. coli T 7) of 0.78 µg/mL (≈ 1.3 µM), an MIC (K. pneumoniae DT) of 0.2 µg/mL (≈ 0.333 µM) and an MIC (S. aureus 1840; [1]) of 0.2 µg/mL (≈ 0.333 µM). For the same molecule, the MIC (S. marcescens IFO12648) was 0.39 µg/mL (≈ 0.65 µM), the MIC (S. aureus N-241) was 3.13 µg/mL (≈ 5.22 µM) and the MIC (M. morganii IFO3168) was 0.39 µg/mL (≈ 0.65 µM). It also gave an MIC (E. coli O-111) of no more than 0.1 µg/mL, an MIC (P. mirabilis IFO3849) of 3.13 µg/mL (≈ 5.22 µM) and an MIC (P. aeruginosa IFO3455) of 12.5 µg/mL (≈ 20.8 µM). The MIC (E. cloacae IFO12937) was 3.13 µg/mL (≈ 5.22 µM), the MIC (S. aureus J-108) was 3.13 µg/mL (≈ 5.22 µM) and the MIC (E. coli NIHJ JC-2) was 0.2 µg/mL (≈ 0.333 µM). For the same molecule, the MIC (S. aureus FDA 209P; [2]) was no more than 0.1 µg/mL, the MIC (S. aureus 308 A-1) was no more than 0.1 µg/mL and the MIC (C. freundii IFO12681) was 0.39 µg/mL (≈ 0.65 µM). It also gave an MIC (P. vulgaris IFO3988) of 0.39 µg/mL (≈ 0.65 µM).

Work on `CO/N=C(\C(=O)N[C@@H]1C(=O)N2C(C(=O)O)=C(CSc3snc(SCC(=N)N)c3C#N)CS[C@H]12)c1csc(N)n1` [Example 15, 3-[(3-Amidinomethylthio-4-cyanoisothiazol-5-yl)thiomethyl]-7β-[2-(2-aminothiazol-4-yl)-(Z)-2-methoxyiminoacetamido]-3-cephem-4-carboxylic acid] yielded an MIC (E. coli T 7) of 0.39 µg/mL (≈ 0.623 µM), an MIC (K. pneumoniae DT) of 0.2 µg/mL (≈ 0.32 µM) and an MIC (S. aureus 1840; Staphylococcus aureus, 1840, 18 h) of 0.39 µg/mL (≈ 0.623 µM). The MIC (S. marcescens IFO12648) was 0.39 µg/mL (≈ 0.623 µM), the MIC (S. aureus N-241) was 6.25 µg/mL (≈ 9.99 µM) and the MIC (M. morganii IFO3168) was 0.2 µg/mL (≈ 0.32 µM). For the same molecule, the MIC (E. coli O-111) was no more than 0.1 µg/mL, the MIC (P. mirabilis IFO3849) was 0.78 µg/mL (≈ 1.25 µM) and the MIC (P. aeruginosa IFO3455) was 6.25 µg/mL (≈ 9.99 µM). The MIC (E. cloacae IFO12937) was 0.78 µg/mL (≈ 1.25 µM), the MIC (S. aureus J-108) was 6.25 µg/mL (≈ 9.99 µM) and the MIC (E. coli NIHJ JC-2) was 0.39 µg/mL (≈ 0.623 µM). For the same molecule, the MIC (S. aureus FDA 209P; [2]) was 0.2 µg/mL (≈ 0.32 µM), the MIC (S. aureus 308 A-1) was 0.2 µg/mL (≈ 0.32 µM) and the MIC (C. freundii IFO12681) was 0.2 µg/mL (≈ 0.32 µM). The MIC (P. vulgaris IFO3988) was 0.2 µg/mL (≈ 0.32 µM).

With `N=C(N)CSc1nnc(SCC2=C(C(=O)O)N3C(=O)[C@@H](NC(=O)/C(=N\O)c4csc(N)n4)[C@H]3SC2)s1` [Example 39, 3-[(2-Amidinomethylthio-1,3,4-thiadiazol-5-yl)thiomethyl]-7β-[2-(2-aminothiazol-4-yl)-(Z)-2-hydroxyiminoacetamido]-3-cephem-4-carboxylic acid] the MIC (E. coli T 7) was 1.56 µg/mL (≈ 2.65 µM), the MIC (K. pneumoniae DT) was no more than 0.1 µg/mL and the MIC (S. aureus 1840; [1]) was 0.39 µg/mL (≈ 0.664 µM). For the same molecule, the MIC (S. marcescens IFO12648) was 0.78 µg/mL (≈ 1.33 µM), the MIC (S. aureus N-241) was 1.56 µg/mL (≈ 2.65 µM) and the MIC (M. morganii IFO3168) was 0.39 µg/mL (≈ 0.664 µM). For the same molecule, the MIC (E. coli O-111) was no more than 0.1 µg/mL, the MIC (P. mirabilis IFO3849) was 1.56 µg/mL (≈ 2.65 µM) and the MIC (P. aeruginosa IFO3455) was 12.5 µg/mL (≈ 21.3 µM). It also gave an MIC (E. cloacae IFO12937) of 3.13 µg/mL (≈ 5.33 µM), an MIC (S. aureus J-108) of 1.56 µg/mL (≈ 2.65 µM) and an MIC (E. coli NIHJ JC-2) of 0.39 µg/mL (≈ 0.664 µM). For the same molecule, the MIC (S. aureus FDA 209P; [2]) was 0.2 µg/mL (≈ 0.34 µM), the MIC (S. aureus 308 A-1) was 0.2 µg/mL (≈ 0.34 µM) and the MIC (C. freundii IFO12681) was 0.39 µg/mL (≈ 0.664 µM). For the same molecule, the MIC (P. vulgaris IFO3988) was 0.78 µg/mL (≈ 1.33 µM).
